Data set [1] is described as follows: in vitro. The note with it: human.
For a further data set, the target named is SERCA2 (Homo sapiens, UniProt P16615). Nature of the data set: ATPase activity of SERCA2 versus concentration. The class given is biochemical. As for the experimental part:
(§1) For example, the concentration of lead compound Compound 1 that suppressed ventricular tachycardia is approximately 0.5% of compound K201 (JTV519) that was previously used to inhibit arrhythmias in a similar mouse model. […] Therefore, advantages exist with regard to reduction of dosage response time compared to previously used drugs to inhibit arrhythmias. […] While Compound 1 inhibits sparks and arrhythmias at 35 nM, the ATPase activity of SERCA2 has been measured versus concentration of Compound 1. At concentrations of 1 μM, 10 μM and 50 μM, ATPase activity was unaffected (data not shown). The data shown in FIGS. 2 and 3 have been repeated several times with different animals (e.g., rabbit model).

Data set [2] can be described thus: Effect on the length of the AP. The method, then: as §1
For data set [3], the system named is RyR2. Nature of the data set: Ca2+ spark frequency assay in ventricular myocytes from CPVT mouse model (R176Q/+). The class given is cell-based. The note with it: versus tetracaine. The text has this:
(§2) Therein, calcium spark frequency data are shown in the presence of increasing amounts of added compound. IC50 is a measure of the effectiveness of a substance in inhibiting a particular biological process or function. Calcium spark frequency is plotted along the y-axis and compound concentration is plotted along the x-axis. Example dose-response curve 120 is included to illustrate the inhibitory effect of Compound 1 on spark frequency for the cells derived from a CPVT mouse model. The quantitative value of IC50 can be determined by identifying the concentration where half of the maximum biological response, such as the calcium spark response, is inhibited. For example, at lower compound concentrations dose-response curve 110 has a higher level of calcium spark frequency, whereas at higher compound concentrations, a transition of the calcium spark frequency to a lower level is observed. The concentration at which the sigmoidal curve of data response curve 120 has a spark frequency reduced by half corresponds to the IC50. […] Thus, as one example, a method for treating cardiac arrhythmias may include administering an amount of Compound 1 to a subject afflicted with heart arrhythmias. The administration may be performed via known routes, such as oral, epidermal, subcutaneous, intravenous, peritoneal, etc.
(§3) Functional Assays in CPVT mouse cells may include isolating ventricular cardiomyocytes from adult (2-3 month-old) R176Q/+ mice or WT littermates. In one exemplary assay, myocytes were loaded with 2 μM Fluo-4-AM in a normal Tyrode solution containing 1.8 mM Ca2+ for 30 minutes at room temperature before washing the cells with Tyrode solution for 15 minutes for de-esterification and transfering to a chamber equipped with parallel platinum electrodes.
(§4) After baseline measurements were completed, myocytes were exposed to the test lead compound. After a 5 min superfusion period, Ca2+ sparks were again measured in the same cell in the presence of the drug compound. The frequency of Ca2+ sparks (CaSpF) were calculated, e.g., using SparkMaster (Picht, E., et al., SparkMaster: automated calcium spark analysis with ImageJ. Am J Physiol Cell Physiol, 2007. 293(3): p. C1073-81), and applications before and after inclusion of the test compound were compared. A detailed dose-response relationship and measurements of inhibition of arrhythmogenic Ca2+ waves in ventricular myocytes from a CPVT mouse model (R176Q/+) were then completed on those compounds showing a significant decrease in spark frequency at 0.5 μM. At the conclusion of these experiments, the Ca2+ spark inhibition rate is calculated as a function of concentration for each compound tested, and an IC50 value determined for each drug compound. […] FIG. 4 compares an exemplary confocal line-scan image of Ca2+ spark recordings from ventricular myocytes isolated from wild-type (WT) mice at 410 relative to those isolated from S2814D mice as shown at 420.
(§5) The above-discussed Ca2+ spark assay was used with R176Q/+ myocytes as an initial screening assay to test the ability of new compounds to inhibit spontaneous pathological SR Ca2+ release in ventricular myocytes.

Data set [4] deals with T1, RyR2 (Mus musculus, UniProt E9Q401).
T1 construct: other: cells derived from a CPVT mouse model (R176Q/+ ventricular myocyte)
The description is as above. The class given is cell-based. The conditions noted are these: cells derived from a CPVT mouse model (R176Q/+ ventricular myocytes); read-out: IC50 (inhibition of calcium spark frequency).
Excerpt: as §2, §3, §4, §5

Data set [5] is described as follows: in vitro. The note with it: human. This is another data set of the same source.
For a further data set, the system named is R176Q/+ mice. Nature of the data set: Arrhythmias (ventricular tachycardia) after cardiac pacing / programmed electrical stimulation in CPVT mice, whole animal level. The class given is in vivo, mouse. An excerpt: Ventricular tachycardia (or VT) is a type of tachycardia, or a rapid heart beat that arises from improper electrical activity of the heart that presents as a rapid heart rhythm. VT is associated with the bottom chambers of the heart, called the ventricles, which are pumping chambers of the heart. […] Therein, electrical signals for four different CPVT mice are shown. Wild type (or WT) signal 210 is provided for reference to illustrate a sinus rhythm (e.g., L2-ECG, lead 2 of the surface ECG). Atrial and ventricular intracardiac electrocardiogram signals are also provided for reference.

The next data set is described as follows: Cytotoxicity in HepG2. The note with it: human, HepG2 cells.
The next data set is described as follows: Cytotoxicity in HEK293. The conditions noted are these: human, HEK293 cells.
The target in a further data set is RyR (Oryctolagus cuniculus, UniProt P11716). The conditions noted are these: literature value; cited from earlier work.

Structures are written as SMILES.

SERCA2, sequence (P16615 whole entry, species assumed): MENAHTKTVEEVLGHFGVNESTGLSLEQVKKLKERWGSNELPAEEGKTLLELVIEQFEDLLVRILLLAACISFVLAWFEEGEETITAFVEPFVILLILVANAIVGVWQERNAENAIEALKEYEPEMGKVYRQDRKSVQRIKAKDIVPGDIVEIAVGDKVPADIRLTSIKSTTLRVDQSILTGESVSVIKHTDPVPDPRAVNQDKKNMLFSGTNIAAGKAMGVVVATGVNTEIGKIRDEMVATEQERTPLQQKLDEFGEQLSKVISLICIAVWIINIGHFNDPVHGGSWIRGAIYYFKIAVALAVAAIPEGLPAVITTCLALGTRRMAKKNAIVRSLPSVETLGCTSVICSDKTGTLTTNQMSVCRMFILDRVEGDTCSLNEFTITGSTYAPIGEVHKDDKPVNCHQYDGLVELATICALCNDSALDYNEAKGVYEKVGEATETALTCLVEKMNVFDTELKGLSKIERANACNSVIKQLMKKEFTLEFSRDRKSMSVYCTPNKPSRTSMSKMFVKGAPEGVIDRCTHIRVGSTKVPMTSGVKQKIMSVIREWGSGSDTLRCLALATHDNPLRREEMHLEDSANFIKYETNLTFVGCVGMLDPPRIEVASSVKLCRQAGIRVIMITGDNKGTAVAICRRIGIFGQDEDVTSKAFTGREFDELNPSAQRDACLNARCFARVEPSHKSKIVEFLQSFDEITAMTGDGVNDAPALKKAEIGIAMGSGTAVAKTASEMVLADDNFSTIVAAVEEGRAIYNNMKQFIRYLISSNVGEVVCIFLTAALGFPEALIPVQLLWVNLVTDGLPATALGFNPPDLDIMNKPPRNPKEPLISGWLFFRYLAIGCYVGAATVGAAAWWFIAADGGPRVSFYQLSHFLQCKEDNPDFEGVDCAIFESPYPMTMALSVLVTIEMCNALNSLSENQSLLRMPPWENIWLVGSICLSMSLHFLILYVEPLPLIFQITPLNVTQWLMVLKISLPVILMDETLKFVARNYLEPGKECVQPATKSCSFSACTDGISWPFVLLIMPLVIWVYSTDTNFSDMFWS

Take `CCCCNc1ccc(C(=O)OCCN(CC)CC)c(OC)c1` [Compound 1]: the concentration for half-maximal inhibition (IC50) in the data set “in vitro [1]” was over 50 µM; at RyR2 [4] it was 0.035 µM; in the data set “in vitro [5]”, over 50 µM. For the same compound, the “ATPase activity of SERCA2” value on SERCA2 (1 μM), on SERCA2 (10 μM) and on SERCA2 (50 μM) was “unaffected” each time. Moreover, in data set [2], the “effect on the length of the AP” value is “No indication has been observed that Compound 1 has any effect on the length of the AP”. For the same compound, the “potency relative to the parent molecule tetracaine (inhibiting RyR2 activity / CRC)” value with RyR2 [3] is reported as about 3000 times. Further, the “level at which arrhythmias are decreased in the whole animal” value in the data set with R176Q/+ mice (CPVT mice, whole animal level) amounted to 2.5 µg/kg. The “concentration with antiarrhythmic activity, as share of that of flecainide” value in the data set on R176Q/+ mice (CPVT mouse model, versus flecainide) was 0.1%. Moreover, the “arrhythmic development following pacing” value in the data set with R176Q/+ mice (R176Q/+ mice, cardiac pacing, ECG (FIG. 2)) was “protected from arrhythmic development following pacing”. For the same compound, the “time to inhibition of arrhythmias” value in the data set on R176Q/+ mice (injected in the tail of the mouse) was at most 10 min. In addition, the “concentration that suppressed ventricular tachycardia, as share of that of K201 (JTV519)” value with R176Q/+ mice (versus K201 in a similar mouse model) is reported as “approximately 0.5%”.
For the compound `CCCCNc1cc(OC)c(C(=O)OCCN(CC)CC)cc1Cl` [Compound 2], the IC50 in the data set “in vitro [1]” is over 50 µM; at RyR2 [4], 0.011 µM; in the data set “in vitro [5]” it was over 50 µM.
As for `CCCCNc1ccc(C(=O)O)cc1N(CCCC)CCCC` [Compound 3], the figures for the IC50 in “in vitro [1]”, at RyR2 [4] and in the data set “in vitro [5]” were over 50 µM, 0.5 µM and over 50 µM, respectively.
Turning to `CCCCNc1ccc(OC(C)=O)cc1C` [Compound 4], the IC50 on RyR2 [4] came to 0.63 µM.
In the case of `CCCCNc1ccc(C(=O)OCCNCC)cc1C` [Compound 5], the 50% inhibitory concentration (IC50) is over 50 µM in the data set “in vitro [1]”, 0.8 µM on RyR2 [4] and over 50 µM in the data set “in vitro [5]”.
Turning to `CCCCNc1ccc(C(=O)OCCN(C)C)cc1.Cl` [Tetracaine], the IC50 in the data set “Cytotoxicity in HepG2” and in “Cytotoxicity in HEK293” was over 50 µM each time. In addition, the “concentration at which the RyR is inhibited” value at RyR was about 150 µM.

For orientation: IC50 means the concentration that inhibits the measured activity by half.

Source of the values: US20160311760A1, “COMPOUNDS FOR TREATMENT OF CARDIAC ARRHYTHMIAS” (ELEX BIOTECH, LLC, priority 2013, published 2016).
